One data set concerns Lolium multiflorum. The data set is described as follows: Phytotoxicity against Lolium multiflorum (Italian ryegrass) seedlings assessed as inhibition of root growth at 100 ppm at 26 degC for 72 hr. It is filed as functional, organism-based.
Data set [1] in a line: Octanol-water partition coefficient, log K of the compound by reversed-phase HPLC. It is filed as physicochemical. The settings on record: read-out: log K.
For a further data set, the system named is Oryza sativa. The data set is described as follows: Phytotoxicity in Oryza sativa (rice) seedlings assessed as assessed as inhibition of root growth at 100 ppm at 26 degC for 72 hr. It is filed as functional, organism-based.

The source made the active and inactive calls. The rule behind the calls is not given here.

With `CC[C@H](C)C(=O)[C@@H](C)C1=CC(=O)C2=C(O[C@]3(C)CC[C@H]4O[C@@H](C(C)(C)O)CC[C@]4(C)[C@H]3[C@@H]2O)[C@]1(O)CC(C)=O` [COCHLIOQUINOL], the inhibition entry with Lolium multiflorum and with Oryza sativa was “Active” throughout. In data set [1], the logP is -0.238.
Consider `CC[C@H](C)[C@@H](O)[C@@H](C)C1=C(CC(C)=O)C(=O)C2=C(O[C@]3(C)CC[C@H]4O[C@@H](C(C)(C)O)CC[C@]4(C)[C@H]3[C@@H]2O)[C@]1(O)OC` [COCHLIOQUINOL III], for which the inhibition result with Lolium multiflorum and in the data set with Oryza sativa was “Active” throughout. Moreover, in data set [1], the logP worked out at 0.31.
As for `CC[C@H](C)C(=O)[C@@H](C)C1=CC(=O)C2=C(O[C@]3(C)CC[C@H]4O[C@@H](C(C)(C)O)C[C@H](O)[C@]4(C)[C@H]3C2)C1=O` [COCHLIOQUINONE E], the inhibition entry with Lolium multiflorum and in the data set with Oryza sativa was “Active” in each case. Besides, the logP in data set [1] was found to be 0.013.
For `CC[C@H](C)[C@@H](OC(C)=O)[C@@H](C)c1cc(O)c2c(c1O)O[C@]1(C)CC[C@H]3O[C@@H](C(C)(C)O)CC[C@]3(C)[C@H]1C2=O` [ISOCOCHLIOQUINONE A], the inhibition result with Lolium multiflorum and in the data set with Oryza sativa was “Active” throughout. Further, the logP in data set [1] was found to be 0.699.
On to `CC[C@H](C)C(=O)[C@@H](C)C1=CC(=O)C2=C(O[C@]3(C)CC[C@H]4O[C@@H](C(C)(C)O)CC[C@]4(C)[C@H]3C2)C1=O` [COCHLIOQUINONE B], for which the inhibition result in the data set on Lolium multiflorum and with Oryza sativa was “Active” throughout. Besides, in data set [1], the logP was determined as 0.437.
For `CC[C@H](C)[C@@H](O)[C@@H](C)C1=CC(=O)C2=C(O[C@]3(C)CC[C@H]4O[C@@H](C(C)(C)O)CC[C@]4(C)[C@H]3[C@@H]2O)[C@]1(O)CC(C)=O` [COCHLIOQUINOL II], the inhibition entry in the data set on Lolium multiflorum and in the data set on Oryza sativa was “Active” in each case. In addition, the logP in data set [1] is -0.05.
Take `CC[C@H](C)C(=O)[C@@H](C)c1cc(O)c2c(c1O)O[C@]1(C)CC[C@H]3O[C@@H](C(C)(C)O)CC[C@]3(C)[C@H]1C2=O` [ISOCOCHLIOQUINONE C]: the inhibition result in the data set with Lolium multiflorum and in the data set with Oryza sativa was “Active” each time. For the same compound, the logP in data set [1] was 0.482.
In the case of `CC[C@H](C)C(=O)[C@@H](C)C1=CC(=O)C2=C(O[C@]3(C)CC[C@H]4O[C@@H](C(C)(C)O)CC[C@]4(C)[C@H]3[C@@H]2O)C1=O` [COCHLIOQUINONE C], the inhibition entry in the data set with Lolium multiflorum and in the data set with Oryza sativa was “Active” each time. The logP in data set [1] came out at 0.091.
As for `C/C=C(\C)[C@@H](OC(C)=O)[C@@H](C)C1=CC(=O)C2=C(O[C@]3(C)CC[C@H]4O[C@@H](C(C)(C)O)CC[C@]4(C)[C@H]3[C@@H]2O)C1=O` [STEMPHONE], the inhibition result with Lolium multiflorum and in the data set with Oryza sativa was “Active” each time. The logP in data set [1] worked out at 0.224.
Turning to `CC[C@H](C)[C@@H](OC(C)=O)[C@@H](C)C1=CC(=O)C2=C(O[C@]3(C)CC[C@H]4O[C@@H](C(C)(C)O)CC[C@]4(C)[C@H]3[C@@H]2O)C1=O` [COCHLIOQUINONE A], the inhibition entry in the data set with Lolium multiflorum and with Oryza sativa was “Active” in each case. For the same compound, in data set [1], the logP is 0.337.
For the compound `C/C=C(\C)C(=O)[C@@H](C)C1=CC(=O)C2=C(O[C@]3(C)CC[C@H]4O[C@@H](C(C)(C)O)CC[C@]4(C)[C@H]3C2)C1=O` [COCHLIOQUINONE D], the inhibition entry in the data set with Lolium multiflorum and in the data set on Oryza sativa was “Active” each time. The logP in data set [1] was found to be 0.287.

The values are drawn from ChEMBL document CHEMBL3045056, “Structures and Biological Activities of Phytotoxins Produced by the Plant Pathogenic Fungus Bipolaris cynodontis cynA” (J Pestic Sci, 1998).
